# Measured values reported in article PMC12165799, “Antimicrobial peptide developed with machine learning sequence optimization targets drug resistant Staphylococcus aureus in mice” (The Journal of Clinical Investigation, 2025).
# Like-named read-outs stand apart in the source and are kept apart here.
# Tests used:
# [1] = test system: MRSA (S. aureus MW2) biofilm; test: Biofilm viability assay on solid support (MW2); format: cell-based, Staphylococcus aureus; conditions: for Bacterial load of 24 hour established biofilm on solid membrane: S. aureus MW2, 24 h in PBS
# [2] = test system: S. aureus MW2 biofilm formation; conditions: for Biofilm formation, biomass (crystal violet), percentage of untreated / Biofilm formation, live-cell viability (XTT), percentage of untreated: 24 hours
# Method: 349 Prevention of S. aureus MW2 biofilm formation
# 350 We evaluated the ability of the citropin 1.1-derived peptides to inhibit biofilm formation
# 351 following an established protocol with modifications (5). In short, we prepared exponential
# 352 cultures of S. aureus MW2 (adjusted to OD600 = 0.01) in TSB medium (supplemented with 0.2%
# 353 glucose) from overnight cultures. We added 90 µl of the bacterial culture to 10 µl of serially diluted
# 354 10× peptide solution in flat-bottomed 96-well polystyrene microtiter plates (Cat no. Corning 3595,
# (§1) We used TSB medium containing
# (§2) 356 bacteria with water as the positive control, while TSB media with sterile water served as the
# (§3) 357 negative control. After incubation, we carefully removed the TSB medium and washed the wells
# (§4) 358 with PBS (Gibco, MD, USA) to remove loosely attached planktonic cells. We quantified the
# (§5) 359 biomass by staining the biofilms with crystal violet following an established protocol and
# (§6) 360 quantitated the concentration of peptide that inhibits 50% of biofilm formation (MBIC50)(8). We
# (§7) 361 measured the live cell count of the biofilms using XTT dye [2,3-bis(2-methyloxy-4-nitro-5-
# 362 sulfophenyl)-2H-tertazolium-5-carboxanilide] (ATCC, VA, USA).
# S. aureus MW2 = test: Minimal inhibitory concentration (MIC) assay, broth microdilution; format: cell-based, Staphylococcus aureus
# Method: 300 Synthesis of peptides
# 302 Piscataway, NJ, USA).
# 305 Minimal inhibitory concentration (MIC) assay
# We made serial dilutions of 10×
# We determined the MIC using OD600
# Accordingly, we added 150 mM NaCl,
# 319 established protocol (5).
# [3] = test system: S. aureus MW2 24 h established biofilm; conditions: 24 h treatment
# Method: 346 plated onto TSA plates, and incubated plates at 37°C overnight. The next day, we counted the
# 347 viable bacterial colonies.
# as §1, §2, §3, §4, §5, §6, §7
# 362 sulfophenyl)-2H-tertazolium-5-carboxanilide] (ATCC, VA, USA). We calculated the percentage
# 363 of biofilm growth by normalizing to biofilm growth in wells containing bacteria without peptide
# 366 Disruption of S. aureus MW2 established biofilms
# 367 We evaluated the ability of the citropin 1.1-derived peptides to disrupt established biofilms
# 368 following an established protocol with modifications (5). We prepared exponential cultures of S.
# 369 aureus MW2 (adjusted to 1 × 10^6 CFU/ml) in TSB medium (supplemented with 0.2% glucose)
# 370 from overnight grown cultures. We added 100 µl of bacterial culture to flat-bottomed 96-well
# 371 polystyrene microtiter plates (Cat no. 3595, Corning, NY, USA). We then incubated the plates at
# 372 37°C for 24 hours in static conditions to allow biofilm formation. After incubation, we carefully
# 373 pipetted out the TSB medium and washed the wells with PBS (Gibco, MD, USA) to remove
# 374 loosely attached planktonic cells. We treated the established biofilms in each well with 10 µl of
# 375 serially diluted 10× peptide solution, followed by the addition of 90 μl TSB medium
# 376 (supplemented with 0.2% glucose). We incubated the plates for another 24 h at 37°C before
# 377 processing biomass and live-cell contents. We calculated the concentration of peptide that disrupts
# 378 50% of established biofilms (MBEC50).
substance,measurement,setting,value
H-GLFKVIKKLLKVI-NH2 [CIT-8],Reduction of viable biofilm cells of MRSA in established biofilms,[1]; 40 μg/mL (abstract),3 log10
same,Reduction of MRSA biofilm burden on solid membrane,"[1]; 40 μg/mL, 24 h established biofilm",2.2 logs
same,Bacterial load of 24 hour established biofilm on solid membrane,"[1]; 4 μg/ml, replicate 1",2200000
same,Bacterial load of 24 hour established biofilm on solid membrane,"[1]; 4 μg/ml, replicate 2",2000000
same,Bacterial load of 24 hour established biofilm on solid membrane,"[1]; 4 μg/ml, replicate 3",3600000
same,Bacterial load of 24 hour established biofilm on solid membrane,"[1]; 4 μg/ml, replicate 4",14000000
same,Bacterial load of 24 hour established biofilm on solid membrane,"[1]; 4 μg/ml, replicate 5",8000000
same,Bacterial load of 24 hour established biofilm on solid membrane,"[1]; 4 μg/ml, replicate 6",3800000
same,Bacterial load of 24 hour established biofilm on solid membrane,"[1]; 40 μg/ml, replicate 1",200000
same,Bacterial load of 24 hour established biofilm on solid membrane,"[1]; 40 μg/ml, replicate 2",400000
same,Bacterial load of 24 hour established biofilm on solid membrane,"[1]; 40 μg/ml, replicate 3",800000
same,Bacterial load of 24 hour established biofilm on solid membrane,"[1]; 40 μg/ml, replicate 4",200000
same,Bacterial load of 24 hour established biofilm on solid membrane,"[1]; 40 μg/ml, replicate 5",600000
same,Bacterial load of 24 hour established biofilm on solid membrane,"[1]; 40 μg/ml, replicate 6",200000
same,"Biofilm formation, biomass (crystal violet), percentage of untreated","[2]; 4 μg/ml, replicate 1",54.1113
same,"Biofilm formation, live-cell viability (XTT), percentage of untreated","[2]; 4 μg/ml, replicate 1",32.0317
same,"Biofilm formation, biomass (crystal violet), percentage of untreated","[2]; 4 μg/ml, replicate 2",76.6895
same,"Biofilm formation, live-cell viability (XTT), percentage of untreated","[2]; 4 μg/ml, replicate 2",22.3741
same,"Biofilm formation, biomass (crystal violet), percentage of untreated","[2]; 4 μg/ml, replicate 3",101.649
same,"Biofilm formation, live-cell viability (XTT), percentage of untreated","[2]; 4 μg/ml, replicate 3",54.6427
same,"Biofilm formation, biomass (crystal violet), percentage of untreated","[2]; 8 μg/ml, replicate 1",13.6231
same,"Biofilm formation, live-cell viability (XTT), percentage of untreated","[2]; 8 μg/ml, replicate 1",-0.6814
same,"Biofilm formation, biomass (crystal violet), percentage of untreated","[2]; 8 μg/ml, replicate 2",7.383
same,"Biofilm formation, live-cell viability (XTT), percentage of untreated","[2]; 8 μg/ml, replicate 2",-0.6073
same,"Biofilm formation, biomass (crystal violet), percentage of untreated","[2]; 8 μg/ml, replicate 3",9.789
same,"Biofilm formation, live-cell viability (XTT), percentage of untreated","[2]; 8 μg/ml, replicate 3",-0.7036
same,"Biofilm formation, biomass (crystal violet), percentage of untreated","[2]; 16 μg/ml, replicate 1",8.5978
same,"Biofilm formation, live-cell viability (XTT), percentage of untreated","[2]; 16 μg/ml, replicate 1",-0.7406
same,"Biofilm formation, biomass (crystal violet), percentage of untreated","[2]; 16 μg/ml, replicate 2",7.669
same,"Biofilm formation, live-cell viability (XTT), percentage of untreated","[2]; 16 μg/ml, replicate 2",-0.7184
same,"Biofilm formation, biomass (crystal violet), percentage of untreated","[2]; 16 μg/ml, replicate 3",8.622
same,"Biofilm formation, live-cell viability (XTT), percentage of untreated","[2]; 16 μg/ml, replicate 3",-0.5258
same,"Biofilm formation, biomass (crystal violet), percentage of untreated","[2]; 32 μg/ml, replicate 1",7.502
same,"Biofilm formation, live-cell viability (XTT), percentage of untreated","[2]; 32 μg/ml, replicate 1",-0.6814
same,"Biofilm formation, biomass (crystal violet), percentage of untreated","[2]; 32 μg/ml, replicate 2",7.074
same,"Biofilm formation, live-cell viability (XTT), percentage of untreated","[2]; 32 μg/ml, replicate 2",-0.6962
same,"Biofilm formation, biomass (crystal violet), percentage of untreated","[2]; 32 μg/ml, replicate 3",7.812
same,"Biofilm formation, live-cell viability (XTT), percentage of untreated","[2]; 32 μg/ml, replicate 3",-0.5036
same,Concentration killing 50% of biofilm cells during biofilm formation,"[2]; XTT live-cell viability, 24 h",4 µg/mL
same,MBIC50 (biomass reduced by 50%),"[2]; crystal violet, 24 h",6 µg/mL
same,"MIC, Medium only","S. aureus MW2; S. aureus MW2, TSB",4 µg/mL
same,MIC + ZnSO4 (8 μM),"S. aureus MW2; S. aureus MW2, TSB + 8 μM ZnSO4",4 µg/mL
same,MIC + MgSO4 (1 mM),"S. aureus MW2; S. aureus MW2, TSB + 1 mM MgSO4",4 µg/mL
same,MIC + CaCl2 (2.5 mM),"S. aureus MW2; S. aureus MW2, TSB + 2.5 mM CaCl2",4 µg/mL
same,MIC + NaCl (150 mM),"S. aureus MW2; S. aureus MW2, TSB + 150 mM NaCl",4 µg/mL
same,MIC + human serum (5%),"S. aureus MW2; S. aureus MW2, TSB + 5% human serum",8 µg/mL
same,MIC + human serum (10%),"S. aureus MW2; S. aureus MW2, TSB + 10% human serum",8 µg/mL
same,Increase of MIC in human serum,"S. aureus MW2; S. aureus MW2, 5%–10% human serum",2 fold
same,MIC SA,"S. aureus MW2; S. aureus MW2, broth microdilution, TSB, 1 × 10^6 CFU/ml, 37°C 18 h, OD600, duplicate",4 µg/mL
same,"Established biofilm, biomass (crystal violet), percentage of untreated","[3]; 4 μg/ml, replicate 1",131.685
same,"Established biofilm, live-cell viability (XTT), percentage of untreated","[3]; 4 μg/ml, replicate 1",82.5027
same,"Established biofilm, biomass (crystal violet), percentage of untreated","[3]; 4 μg/ml, replicate 2",134.586
same,"Established biofilm, live-cell viability (XTT), percentage of untreated","[3]; 4 μg/ml, replicate 2",94.0114
same,"Established biofilm, biomass (crystal violet), percentage of untreated","[3]; 4 μg/ml, replicate 3",61.6564
same,"Established biofilm, live-cell viability (XTT), percentage of untreated","[3]; 4 μg/ml, replicate 3",89.5709
same,"Established biofilm, biomass (crystal violet), percentage of untreated","[3]; 8 μg/ml, replicate 1",62.9601
same,"Established biofilm, live-cell viability (XTT), percentage of untreated","[3]; 8 μg/ml, replicate 1",83.9897
same,"Established biofilm, biomass (crystal violet), percentage of untreated","[3]; 8 μg/ml, replicate 2",123.287
same,"Established biofilm, live-cell viability (XTT), percentage of untreated","[3]; 8 μg/ml, replicate 2",89.9036
same,"Established biofilm, biomass (crystal violet), percentage of untreated","[3]; 8 μg/ml, replicate 3",70.3988
same,"Established biofilm, live-cell viability (XTT), percentage of untreated","[3]; 8 μg/ml, replicate 3",92.7553
same,"Established biofilm, biomass (crystal violet), percentage of untreated","[3]; 16 μg/ml, replicate 1",49.8211
same,"Established biofilm, live-cell viability (XTT), percentage of untreated","[3]; 16 μg/ml, replicate 1",6.002
same,"Established biofilm, biomass (crystal violet), percentage of untreated","[3]; 16 μg/ml, replicate 2",67.6508
same,"Established biofilm, live-cell viability (XTT), percentage of untreated","[3]; 16 μg/ml, replicate 2",15.664
same,"Established biofilm, biomass (crystal violet), percentage of untreated","[3]; 16 μg/ml, replicate 3",56.1605
same,"Established biofilm, live-cell viability (XTT), percentage of untreated","[3]; 16 μg/ml, replicate 3",21.3742
same,"Established biofilm, biomass (crystal violet), percentage of untreated","[3]; 32 μg/ml, replicate 1",28.3231
same,"Established biofilm, live-cell viability (XTT), percentage of untreated","[3]; 32 μg/ml, replicate 1",9.9063
same,"Established biofilm, biomass (crystal violet), percentage of untreated","[3]; 32 μg/ml, replicate 2",39.7878
same,"Established biofilm, live-cell viability (XTT), percentage of untreated","[3]; 32 μg/ml, replicate 2",2.777
same,"Established biofilm, biomass (crystal violet), percentage of untreated","[3]; 32 μg/ml, replicate 3",32.068
same,"Established biofilm, live-cell viability (XTT), percentage of untreated","[3]; 32 μg/ml, replicate 3",4.02
same,Concentration killing 50% of live cells in 24 h established biofilm,[3]; XTT,12 µg/mL
same,MBEC50 (50% of biomass disrupted),"[3]; crystal violet, 24 h established biofilm",24 µg/mL
